# Assay results as given in patent US20160022769A1, “COMPOSTIONS AND METHODS FOR TREATING RETINAL DISEASE” (RETINAL SOLUTIONS LLC, priority 2013, published 2016).
# Assays:
# [1] = test system: posterior capillary dropout in the retina; test: oxygen-induced retinopathy (OIR) mouse model, fluorescein angiography of retinal capillary dropout; format: in vivo
# Source text: FIG. 2 is a montage of fluorescein angiograms depicting a retinal phenotype as observed in an OIR mouse, which highlights large areas of posterior capillary dropout in the retina.
# Capillary drop out is a very serious problem for many retinal vascular diseases. […] See Trese, M. T. et al., Retinal Physician, April 2011.
# [2] = molecular target: T1, Frizzled receptor subtype 4 (Fz4) (Homo sapiens, UniProt Q9ULV1); conditions: literature (Xu 2004 and others); cited from earlier work
# T1 sequence (Q9ULV1 37-537): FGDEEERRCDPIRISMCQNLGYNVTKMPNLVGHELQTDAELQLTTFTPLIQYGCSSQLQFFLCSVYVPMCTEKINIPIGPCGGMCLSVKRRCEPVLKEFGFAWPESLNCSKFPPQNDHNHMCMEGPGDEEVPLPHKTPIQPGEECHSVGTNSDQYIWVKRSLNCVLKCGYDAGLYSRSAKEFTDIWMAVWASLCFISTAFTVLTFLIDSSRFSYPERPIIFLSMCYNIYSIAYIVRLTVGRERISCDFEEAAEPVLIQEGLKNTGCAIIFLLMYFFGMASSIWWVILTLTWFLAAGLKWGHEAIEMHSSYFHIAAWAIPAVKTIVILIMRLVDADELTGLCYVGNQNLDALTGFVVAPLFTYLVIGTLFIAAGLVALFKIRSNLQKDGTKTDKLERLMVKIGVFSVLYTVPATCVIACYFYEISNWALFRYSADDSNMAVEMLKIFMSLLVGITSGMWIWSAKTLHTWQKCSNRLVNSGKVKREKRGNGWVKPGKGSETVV
substance,measurement,setting,value
"Norrin: 131 amino acid secreted protein (NCBI NP_000257.1), ligand of Frizzled-4 that activates Wnt signaling",retinal phenotype on fluorescein angiogram,"[1]; OIR mouse, intravitreal injection, FIG. 4",posterior capillary sparing
same,capillary dropout,"[1]; murine capillary dropout model, norrin treatment (FIG. 4 vs FIGS. 1-3)",reduced or eliminated
same,affinity for Fz4,[2],nanomolar affinity
